Molecules are shown by their SMILES. Read-outs that look alike come from different tables or passages of the source.

Data on eight compounds can be found in patent publication US9376408B2, “Therapeutic thiazolidinone compounds” (Merck Sharp & Dohme Corp., priority 2012, dated 2016).

Experiment [1] has as its target T1, endogenous CETP from serum (Homo sapiens, UniProt P11597).
T1 construct: yielding a concentration of approximately 15 nM endogenous CETP in the assay; from tissue; host or cells: human serum
T1 sequence (P11597 18-493): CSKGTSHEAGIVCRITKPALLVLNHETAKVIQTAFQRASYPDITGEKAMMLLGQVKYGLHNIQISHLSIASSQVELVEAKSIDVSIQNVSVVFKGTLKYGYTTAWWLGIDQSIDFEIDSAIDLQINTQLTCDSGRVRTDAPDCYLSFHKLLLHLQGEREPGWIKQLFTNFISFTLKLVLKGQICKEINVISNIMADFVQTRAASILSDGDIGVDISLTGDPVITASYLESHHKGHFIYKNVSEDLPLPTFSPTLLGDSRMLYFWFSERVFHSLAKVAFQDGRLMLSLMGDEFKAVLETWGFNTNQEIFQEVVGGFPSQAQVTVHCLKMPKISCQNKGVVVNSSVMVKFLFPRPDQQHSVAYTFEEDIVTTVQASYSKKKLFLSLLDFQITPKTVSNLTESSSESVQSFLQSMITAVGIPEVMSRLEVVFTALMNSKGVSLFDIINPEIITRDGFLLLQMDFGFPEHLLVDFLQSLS
In words: RTA assay in 95% human serum (CETP-catalyzed CE and TG transfer, endogenous CETP from serum). It counts as biochemical. The procedure: In Vitro Radioactive Assays of CETP-Catalyzed CE and TG Transfer (RTA Assay)
Reagents and sources are: [3H] cholesteryl oleate (GE #TRK.886), [3H] Triolein (Perkin-Elmer NET-431), Butylated hydroxyl toluene (Aldrich, #D4740-4), DOPC (Sigma, # P6354), Sodium Bromide (Fisher scientific #S255-500), PEG 8000 (Fisher, #BP233-1), and human HDL (Intracel Corp #RP-036).
An in vitro assay for determining IC50's to identify compounds that inhibit CETP transfer activity is performed based on a modification of a published method (Morton and Zilversmit, (1981) A plasma inhibitor of triglyceride and cholesteryl ester transfer activities, J. Biol. Chem. 256(23), 11992-11995). The ability of inhibitors to alter CETP activity is performed using two different assays: one using recombinant CETP and one using an endogenous plasma source of CETP. Both assays measure the transfer of [3H] cholesteryl oleate or [3H] triolein from exogenous LDL to HDL.
Radiolabeled donor particles are generated by first combining 100 μl of 200 μM butylated hydroxyl toluene in CHCl3, 216 μL of 21.57 mM DOPC in EtOH, and either 500 μCi [3H]-triolein (Perkin Elmer #NET-431) or 500 μCi [3H]-cholesteryl oleate (GE #TRK886) in a glass tube. Reagents are mixed, dried under nitrogen, and then resuspended in 2 mL of 50 mM Tris, 27 μM EDTA at pH 7.4. After a brief vortex, the solution is sonicated until clear and mixed with 20 mL of fresh human serum. The mixture is incubated overnight at 37° C. The [3H] labeled LDL substrate is separated at 1.063 g/ml density by sequential ultracentrifugal flotation in NaBr according to the method of Havel, Eder, et al., 1955, and Chapman, Goldstein, et al., 1981. Once isolated the particles are dialyzed 3× in CETP buffer (50 mM Tris, pH 7.4, 100 mM NaCl, 1 mM EDTA). Human HDL is purchased from Intracel and used as the acceptor particles.
Transfer assays are performed in a 96-well v-bottom polypropylene plate. For the RTA using recombinant CETP (2% RTA), an assay cocktail is prepared with the final concentrations 128 μg/mL HDL, 20 nM rCETP, 2% human serum, and 1×CETP buffer. 1 μL of each test compound diluted in DMSO is added to 47 μL of assay cocktail per well and incubated at 37° C. for 1 hour. To initiate the transfer reaction, 2 μL radiolabeled LDL is added. After an additional 60 min of incubation at 37° C., the transfer action is terminated by precipitation of LDL with an equal volume of 20% W/V PEG 8000. The plates are centrifuged at 2000 rpm for 30 minutes at 4° C. A 40 μL aliquot of the HDL-containing supernatant is transferred to a Packard Optiplate™ with 200 μL of MicroScint™ 20. After mixing, plates are counted by liquid scintillation. Counts present in the supernatant for blanks (wells containing only HDL acceptor, CETP buffer and DMSO) are subtracted from those containing test compounds and used to correct for non-specific transfer.
For the transfer assay using endogenous CETP from serum (95% RTA), the same procedure is used except that human serum is added such that a final concentration of serum of 95% of the total assay volume is achieved, yielding a concentration of approximately 15 nM endogenous CETP in the assay. This is then combined with HDL and CETP buffer and the reaction proceeds as above and is terminated as described.
Comparison of the counts of samples with inhibitors to an uninhibited (DMSO only) positive control yield a percent inhibition. A plot of percent inhibition vs. log of inhibitor concentration, fit to a Sigmoidal 4 parameter equation is used to calculate IC50.
Starting materials are commercially available or are made using known procedures or as shown below. The examples may be synthesized using the general schemes provided below. Synthetic intermediates for making the compounds are made as described below. The data reported for the examples below were generally obtained using the RTA assay in 95% human serum. […]

The conditions of experiment [2]: patients on anacetrapib plus baseline statin compared with patients treated with just a statin; cited from earlier work.

For the compound `COc1ncc(-c2c(C)cc(C(=O)O)cc2C)cc1-c1ccc(C(F)(F)F)nc1CN1C(=O)S[C@H](c2cc(C(F)(F)F)cc(C(F)(F)F)c2)[C@@H]1C` [Example 5, 4-[2′-({(4S,5R)-5-[3,5-bis(trifluoromethyl)phenyl]-4-methyl-2-oxo-1,3-thiazolidin-3-yl}methyl)-2-methoxy-6′-(trifluoromethyl)-3,3′-bipyridin-5-yl]-3,5-dimethylbenzoic acid], the IC50 in experiment [1] (read-out: IC50) was 25 nM. In the case of `COc1cc(F)c(C(C)C)cc1-c1ccc(C(F)(F)F)cc1CN1C(=O)O[C@H](c2cc(C(F)(F)F)cc(C(F)(F)F)c2)[C@@H]1C` [anacetrapib], in experiment [2], the “decrease of LDL-C” value is given as 40% and the “increase of HDL-C” value is 138%. In the case of `COc1ccc(-c2ccc(C(=O)O)cc2C)cc1-c1ccc(C(F)(F)F)cc1CN1C(=O)S[C@H](c2cc(C(F)(F)F)cc(C(F)(F)F)c2)[C@@H]1C` [Example 1, 2″-(((4S,5R)-5-(3,5-bis(trifluoromethyl)phenyl)-4-methyl-2-oxothiazolidin-3-yl)methyl)-4′-methoxy-2-methyl-4″-(trifluoromethyl)-[1,1′:3′,1″-terphenyl]-4-carboxylic acid], in experiment [1] (read-out: RTA (95% HS)), the IC50 was 62 nM. For `COc1ccc(-c2ccc(C(=O)O)cc2C)cc1-c1ccc(C(F)(F)F)nc1CN1C(=O)S[C@H](c2cc(C(F)(F)F)cc(C(F)(F)F)c2)[C@@H]1C` [Example 2, 3′-[2-({(4S,5R)-5-[3,5-bis(trifluoromethyl)phenyl]-4-methyl-2-oxo-1,3-thiazolidin-3-yl}methyl)-6-(trifluoromethyl)pyridin-3-yl]-4′-methoxy-2-methylbiphenyl-4-carboxylic acid], the IC50 in experiment [1] (read-out: IC50) turned out to be 39 nM. For `COc1ncc(-c2ccc(C(=O)O)cc2C)cc1-c1ccc(C(F)(F)F)cc1CN1C(=O)S[C@H](c2cc(C(F)(F)F)cc(C(F)(F)F)c2)[C@@H]1C` [Example 7, 4-{5-[2-({(4S,5R)-5-[3,5-bis(trifluoromethyl)phenyl]-4-methyl-2-oxo-1,3-thiazolidin-3-yl}methyl)-4-(trifluoromethyl)phenyl]-6-methoxypyridin-3-yl}-3-methylbenzoic acid], the IC50 in experiment [1] (read-out: IC50) was 117 nM.

Regarding `COc1ccc([C@H]2CC[C@H](C(=O)O)CC2)cc1-c1ccc(C(F)(F)F)nc1CN1C(=O)S[C@H](c2cc(C(F)(F)F)cc(C(F)(F)F)c2)[C@@H]1C` [Example 6, trans-4-{3-[2-({(4S,5R)-5-[3,5-bis(trifluoromethyl)phenyl]-4-methyl-2-oxo-1,3-thiazolidin-3-yl}methyl)-6-(trifluoromethyl)pyridin-3-yl]-4-methoxyphenyl} cyclohexanecarboxylic acid], in experiment [1] (read-out: IC50), the IC50 worked out at 257 nM. The same measure, in the same setting: for `COc1ccc(CCC(=O)O)cc1-c1ccc(C(F)(F)F)nc1CN1C(=O)S[C@H](c2cc(C(F)(F)F)cc(C(F)(F)F)c2)[C@@H]1C` [Example 4, 3-{3-[2-({(4S,5R)-5-[3,5-bis(trifluoromethyl)phenyl]-4-methyl-2-oxo-1,3-thiazolidin-3-yl}methyl)-6-(trifluoromethyl)pyridin-3-yl]-4-methoxyphenyl} propanoic acid] the value was 300 nM; for `COc1ncc(-c2ccc(C(=O)O)cc2C)cc1-c1ccc(C(F)(F)F)nc1CN1C(=O)S[C@H](c2cc(C(F)(F)F)cc(C(F)(F)F)c2)[C@@H]1C` [Example 3, 4-[2′-({(4S,5R)-5-[3,5-bis(trifluoromethyl)phenyl]-4-methyl-2-oxo 1,3-thiazolidin-3-yl}methyl)-2-methoxy-6′-(trifluoromethyl)-3,3′-bipyridin-5-yl]-3-methylbenzoic acid], 106 nM.
